PubChem BioAssay AID330 (DTP/NCI, 2004)
Values joined by “and” are separate entries in the source; they are usually repeats but may differ in a detail not shown here. Equal values may be shown once. Toxic doses and inconclusive results are not listed. Rule for the calls: active = survival T/C of 150% or more; inactive = T/C below 125% in these data.

Test system: P388 leukemia ip, CD2F1 mice, survival T/C
Assay: NCI In Vivo Anticancer Drug Screen. Data for tumor model P388 Leukemia (intraperitoneal) in CD2F1 (CDF1) mice
Settings: endpoint: median survival time, higher = longer survival
Procedure, shortened: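 Mice carrying the transplanted tumor received test compound or vehicle. Survival was recorded in each group, and the value is the treated-group measurement divided by that of the vehicle-treated control group.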

[1] = dose: 60.0 mg/kg/injection, schedule: Q01DX005 (ip), vehicle: saline with Tween-80
[2] = dose: 12.5 mg/kg/injection, schedule: Q01DX009 (ip), vehicle: saline
[3] = dose: 120.0 mg/kg/injection, schedule: Q01DX005 (ip), vehicle: saline with Tween-80
[4] = dose: 240.0 mg/kg/injection, schedule: Q01DX005 (ip), vehicle: saline with Tween-80
[5] = dose: 50.0 mg/kg/injection, schedule: Q01DX005 (ip), vehicle: saline with Tween-80
[6] = dose: 100.0 mg/kg/injection, schedule: Q01DX005 (ip), vehicle: saline with Tween-80
[7] = dose: 200.0 mg/kg/injection, schedule: Q01DX005 (ip), vehicle: saline with Tween-80
[8] = dose: 100.0 mg/kg/injection, schedule: Q04DX003 (ip), vehicle: saline
[9] = dose: 200.0 mg/kg/injection, schedule: Q04DX003 (ip), vehicle: saline
[10] = dose: 400.0 mg/kg/injection, schedule: Q04DX003 (ip), vehicle: saline
[11] = dose: 25.0 mg/kg/injection, schedule: Q04DX003 (ip), vehicle: Klucel (hydroxypropylcellulose) (HPC)
[12] = dose: 50.0 mg/kg/injection, schedule: Q04DX003 (ip), vehicle: Klucel (hydroxypropylcellulose) (HPC)
[13] = dose: 50.0 mg/kg/injection, schedule: Q01DX009 (ip), vehicle: saline with Tween-80
[14] = dose: 100.0 mg/kg/injection, schedule: Q01DX009 (ip), vehicle: saline with Tween-80
[15] = dose: 200.0 mg/kg/injection, schedule: Q01DX009 (ip), vehicle: saline with Tween-80
[16] = dose: 400.0 mg/kg/injection, schedule: Q01DX009 (ip), vehicle: saline with Tween-80
[17] = dose: 100.0 mg/kg/injection, schedule: Q04DX003 (ip), vehicle: Klucel (hydroxypropylcellulose) (HPC)

Measured: T/C

C/C(=N\N)c1nc2ccccc2[nH]1
inactive: dose: 15.0 mg/kg/injection, schedule: Q01DX005 (ip), vehicle: saline with Tween-80 101 % of control | dose: 30.0 mg/kg/injection, schedule: Q01DX005 (ip), vehicle: saline with Tween-80 101 % of control | dose: 60.0 mg/kg/injection, schedule: Q01DX005 (ip), vehicle: Klucel (hydroxypropylcellulose) (HPC) 100 % of control | [1] 108 % of control

C[N+](C)=C1C=CC(=C2C=CSC=C2)C=C1
inactive: [2] 108 % of control and 112 % of control

CC(=O)C1(C(C)=O)OC2c3ccccc3C=CN2C=C1C=O (configuration not stated)
inactive: [1] 110 % of control | [3] 106 % of control | [4] 106 % of control

Clc1ccc(-c2nnc(Nc3ccnc4cc(Cl)ccc34)s2)cc1
inactive: dose: 12.5 mg/kg/injection, schedule: Q01DX005 (ip), vehicle: saline with Tween-80 96 % of control | dose: 25.0 mg/kg/injection, schedule: Q01DX005 (ip), vehicle: saline with Tween-80 96 % of control | [5] 99 % of control and 102 % of control

CCOC(=O)Nc1c(C)noc1NC(C)=O
inactive: dose: 100.0 mg/kg/injection, schedule: Q01DX001 (ip), vehicle: saline with Tween-80 100 % of control | dose: 200.0 mg/kg/injection, schedule: Q01DX001 (ip), vehicle: saline with Tween-80 100 % of control | dose: 400.0 mg/kg/injection, schedule: Q01DX001 (ip), vehicle: saline with Tween-80 95 % of control

C=C1C(=O)OC2C=CCCC12 (configuration not stated)
inactive: dose: 12.5 mg/kg/injection, schedule: Q01DX009 (ip), vehicle: water 101 % of control | dose: 25.0 mg/kg/injection, schedule: Q01DX009 (ip), vehicle: water 103 % of control | dose: 50.0 mg/kg/injection, schedule: Q01DX009 (ip), vehicle: water 106 % of control | dose: 100.0 mg/kg/injection, schedule: Q01DX009 (ip), vehicle: water 118 % of control

CCCC1OCC(O)C(C(O)C(=O)CN(Cc2ccccc2)Cc2ccccc2)O1 (configuration not stated)
inactive: [5] 100 % of control | [6] 98 % of control | [7] 98 % of control

Cc1nc(C)n2ncnc2c1C
inactive: [8] 93 % of control | [9] 102 % of control | [10] 95 % of control

O=C(NC(=O)c1cc2cc(Cl)cc(Cl)c2oc1=O)Oc1ccccc1
inactive: [5] 89 % of control | [6] 91 % of control | [7] 98 % of control

N=c1c2ccccc2nc2n1CCCCCCC2
inactive: [11] 103 % of control | [12] 91 % of control

CCn1c(Cl)c(/C=C(/NC(=O)c2ccccc2)C(=O)O)c2ccccc21
inactive: dose: 100.0 mg/kg/injection, schedule: Q01DX001 (ip), vehicle: Klucel (hydroxypropylcellulose) (HPC) 100 % of control | dose: 200.0 mg/kg/injection, schedule: Q01DX001 (ip), vehicle: Klucel (hydroxypropylcellulose) (HPC) 94 % of control | dose: 400.0 mg/kg/injection, schedule: Q01DX001 (ip), vehicle: Klucel (hydroxypropylcellulose) (HPC) 94 % of control

Cc1ccc2cccc(OC(=O)c3cccnc3Oc3ccccc3)c2n1
inactive: [13] 91 % of control | [14] 90 % of control | [15] 90 % of control

CC1COC(C)(C)P(c2ccccc2)C1 (configuration not stated)
inactive: [1] 102 % of control | [3] 105 % of control | [4] 106 % of control

CCCCCCC(=O)/C=C/c1c(OC)cc(OC)cc1OC
inactive: [13] 101 % of control | [14] 101 % of control | [15] 97 % of control

COC1=CC(=O)C(C(C)=O)=C(C#N)C1=O
inactive: dose: 100.0 mg/kg/injection, schedule: Q04DX002 (ip), vehicle: saline with Tween-80 100 % of control | dose: 200.0 mg/kg/injection, schedule: Q04DX002 (ip), vehicle: saline with Tween-80 100 % of control | dose: 400.0 mg/kg/injection, schedule: Q04DX002 (ip), vehicle: saline with Tween-80 90 % of control

CC(C)(C)c1ccc(O)c(CNCc2ccccc2)c1
inactive: dose: 25.0 mg/kg/injection, schedule: Q01DX005 (ip), vehicle: Klucel + Tween-80 99 % of control | dose: 50.0 mg/kg/injection, schedule: Q01DX005 (ip), vehicle: Klucel + Tween-80 97 % of control | dose: 100.0 mg/kg/injection, schedule: Q01DX005 (ip), vehicle: Klucel + Tween-80 93 % of control | dose: 200.0 mg/kg/injection, schedule: Q01DX005 (ip), vehicle: Klucel + Tween-80 100 % of control

Cc1ccc(N)c(N)c1
inactive: [14] 99 % of control | dose: 100.0 mg/kg/injection, schedule: Q01DX009 (ip), vehicle: saline 107 % of control | [15] 109 % of control | [16] 123 % of control

CC1CN(C(=O)OCC23COC4(C)CCC(C)(OC2)N34)CC(C)O1 (configuration not stated)
inactive: dose: 50.0 mg/kg/injection, schedule: Q01DX005 (ip), vehicle: saline 100 % of control | dose: 100.0 mg/kg/injection, schedule: Q01DX005 (ip), vehicle: saline 100 % of control | dose: 200.0 mg/kg/injection, schedule: Q01DX005 (ip), vehicle: saline 100 % of control

O=C1OCCC(O)=C1C=NCc1ccccc1
inactive: [11] 105 % of control | [12] 104 % of control | [17] 99 % of control and 88 % of control

CC([OH2+])CNCCN.CC([OH2+])CNCCN.O=[N+]([O-])[O-].[Ni+2] (configuration not stated)
inactive: dose: 3.13 mg/kg/injection, schedule: Q01DX009 (ip), vehicle: saline 87 % of control | dose: 6.25 mg/kg/injection, schedule: Q01DX009 (ip), vehicle: saline 88 % of control | [2] 102 % of control and 87 % of control

C=C(C)C(=O)O[C@@H]1C/C(C)=C\[C@H](OC(C)=O)C[C@](C)(O)/C=C2/OC(=O)C(COC(C)=O)=C21
inactive: dose: 5.5 mg/kg/injection, schedule: Q01DX005 (ip), vehicle: Klucel (hydroxypropylcellulose) (HPC) 105 % of control and 110 % of control | dose: 11.0 mg/kg/injection, schedule: Q01DX005 (ip), vehicle: Klucel (hydroxypropylcellulose) (HPC) 103 % of control and 109 % of control | dose: 22.0 mg/kg/injection, schedule: Q01DX005 (ip), vehicle: Klucel (hydroxypropylcellulose) (HPC) 122 % of control

NC(=O)C1CCCN1C(=O)C1CCCN(Cc2ccc(CN3CCCC(C(=O)N4CCCC4C(N)=O)C3)cc2)C1 (configuration not stated)
inactive: dose: 60.0 mg/kg/injection, schedule: Q01DX005 (ip), vehicle: saline 106 % of control | dose: 120.0 mg/kg/injection, schedule: Q01DX005 (ip), vehicle: saline 97 % of control

CCCCCCC(=O)CC(SCC)c1ccc(Cl)c(Cl)c1 (configuration not stated)
inactive: [13] 100 % of control | [14] 97 % of control | [15] 106 % of control

c1ccc2nc(NCCSSCCNc3cnc4ccccc4n3)cnc2c1
inactive: [14] 86 % of control | [15] 86 % of control | [16] 86 % of control

CCOC(=O)C(=CCBr)C(=O)OCC
inactive: dose: 1.56 mg/kg/injection, schedule: Q01DX009 (ip), vehicle: other 105 % of control | dose: 3.13 mg/kg/injection, schedule: Q01DX009 (ip), vehicle: other 110 % of control | dose: 6.25 mg/kg/injection, schedule: Q01DX009 (ip), vehicle: other 118 % of control | dose: 12.5 mg/kg/injection, schedule: Q01DX009 (ip), vehicle: other 106 % of control | dose: 25.0 mg/kg/injection, schedule: Q01DX009 (ip), vehicle: other 102 % of control

c1ccc2c(NCCCCCCCCCCNc3c4ccccc4nc4ccccc34)c3ccccc3nc2c1
inactive: dose: 0.62 mg/kg/injection, schedule: Q## X009 (ip), vehicle: lactic acid 104 % of control | dose: 1.25 mg/kg/injection, schedule: Q## X009 (ip), vehicle: lactic acid 118 % of control | dose: 5.0 mg/kg/injection, schedule: Q## X009 (ip), vehicle: lactic acid 120 % of control | dose: 10.0 mg/kg/injection, schedule: Q## X009 (ip), vehicle: lactic acid 90 % of control

N#CC1=Cc2ccccc2OC1
inactive: [17] 108 % of control | dose: 200.0 mg/kg/injection, schedule: Q04DX003 (ip), vehicle: Klucel (hydroxypropylcellulose) (HPC) 108 % of control | dose: 400.0 mg/kg/injection, schedule: Q04DX003 (ip), vehicle: Klucel (hydroxypropylcellulose) (HPC) 105 % of control

CCCCCCCCCCCCN1C(=O)[N+](C)(C)N=C1[O-]
inactive: [8] 113 % of control | [9] 105 % of control | [10] 105 % of control
